Measurements published in patent US10585087B2, “Method for evaluating and selecting agent for suppressing odors of sulfide compounds” (KAO CORPORATION, priority 2015, dated 2020).

What was measured:
olfactory receptor OR4S2 [1] = target: T1, olfactory receptor OR4S2 (Homo sapiens, UniProt Q8NH73); test: Luciferase reporter gene assay: suppression of OR4S2 response to DMDS or DMTS by test substance; type: cell-based; conditions: for response (Fold increase) of OR4S2 to DMTS in the presence of test substance: 300 μM DMTS, test substance 100 μM, FIG. 6; for response (Response %) of OR4S2 to DMDS in the presence of test substance: 1 mM DMDS, test substance 0 to 3000 μM, FIG. 5
T1 construct: expressed in transfected cells; host or cells: HEK293
T1 sequence (Q8NH73 1-311): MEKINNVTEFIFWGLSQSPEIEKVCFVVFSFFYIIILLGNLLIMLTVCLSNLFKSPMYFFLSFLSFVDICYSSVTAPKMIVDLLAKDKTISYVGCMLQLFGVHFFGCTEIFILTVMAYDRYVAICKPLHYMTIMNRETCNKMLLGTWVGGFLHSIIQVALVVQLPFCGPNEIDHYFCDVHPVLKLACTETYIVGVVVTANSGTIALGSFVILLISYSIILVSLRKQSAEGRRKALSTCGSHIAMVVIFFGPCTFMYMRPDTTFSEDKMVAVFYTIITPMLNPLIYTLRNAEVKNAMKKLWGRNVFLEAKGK
Experimental: By using the same procedure as in Example 1 (1) to (3), HEK293 cells expressing OR4S2 (SEQ ID NO: 2) were prepared. The response of the olfactory receptor to DMDS (the value fLuc/hRluc) was measured in the presence and absence of a test substance by using luciferase reporter gene assay in accordance with the procedure in Example 1 (4). The value fLuc/hRluc induced by a stimulus of single DMDS, (X), the value fLuc/hRluc for cells without a stimulus of DMDS, (Y), and the value fLuc/hRluc induced by a co-stimulus of DMDS and a test substance, (Z), were determined, and the intensity of the response (Response (%)) of the receptor to DMDS in the presence of a test substance was determined by using the following formula. Response (%)=(Z−Y)/(X−Y)×100 The experiment was performed independently three times, and the average value of the experiments was determined. The concentration of DMDS to be added to a culture was set at 1 mM, and the concentration of a test substance to be added was changed in the range of from 0 to 3000 μM.
For the response to DMTS, the value fLuc/hRluc to a stimulus of single DMTS, (X′), was divided by the value fLuc/hRluc for cells without a stimulus of DMTS, (Y), and the value obtained by the division, (X′/Y), was set as a value of the response to DMTS (Fold increase). To compare the effect of a test substance on the response to DMTS, the value fLuc/hRluc induced by a co-stimulus of DMTS and a test substance, (Z′), was similarly divided by the value fLuc/hRluc for cells without a stimulus, (Y), to calculate (Z′/Y) as Fold increase. The experiment was performed independently three times, and the average value of the experiments was determined. The concentration of DMTS to be added to a culture was set at 300 μM, and the concentration of a test substance to be added was set at 100 μM.

[2] = Sensory test of odor-suppressing effect for sulfide compounds; type: in vivo; conditions: for odor intensity of DMTS in sensory test: 0.01% (v/v) DMTS and 0.1% (v/v) test substance in mineral oil, 11 evaluators, FIG. 7B; for odor intensity of DMDS in sensory test: 0.1% (v/v) DMDS and 0.1% (v/v) test substance in mineral oil, 10 evaluators, FIG. 7A
Experimental: For each of DMDS, cis-4-heptenal, and 1,4-cineol, a 0.1% (v/v) solution in mineral oil was prepared. For DMTS, a 0.01% (v/v) solution in mineral oil was prepared. Two cotton balls were put in a 20 mL glass bottle (Maruemu Corporation, No. 6), and one cotton ball was impregnated with 30 μL of the DMDS or DMTS solution, and the other cotton ball was impregnated with 30 μL a solution of one of the OR4S2 antagonists. The glass bottle containing the cotton balls was covered with a lid, and left to stand at 37° C. for 1 hour, and thereafter used as a test sample for a sensory test. Glass bottles containing only a cotton ball impregnated with the DMDS or DMTS solution were prepared as reference samples, and a glass bottle containing only a cotton ball impregnated with mineral oil (Vehicle) was prepared as a control sample.
A sensory test was performed in a single-blinded mode with 10 evaluators for DMDS and 11 evaluators for DMTS. The test was initiated after two o'clock pm, which was 1.5 hours or longer after a meal. To prevent diffusion of a smell, the test was performed essentially under a fume hood. To eliminate the influence of adaptation to odors of sulfide compounds, the evaluators were appropriately checked for the intensity of recognition to the odor of DMDS or DMTS in the test, and rested as necessary. The evaluators were separated into two groups, and one group evaluated the odor-suppressing effect for DMDS or DMTS with respect to cis-4-heptenal and 1,4-cineol, in the order presented, and the other group evaluated it with respect to 1,4-cineol and cis-4-heptenal, in the order presented. Each test sample was replaced with another one after evaluation by each of three evaluators.
In evaluation of odors of test samples, the following criteria in five grades were set for each evaluator: “odor of DMDS (or DMTS) was 1: unidentifiable, 2: perceivable, 3: easily identifiable, 4: strong, 5: intolerably strong”, and the evaluators rated the odor intensity of DMDS (or DMTS) for each test sample in nine grades from 1.0 to 5.0 at an interval of 0.5, where the odor intensity of single DMDS (or DMTS) was assumed as 3. The average value of the evaluation results by the evaluators was determined.

olfactory receptor OR4S2 [3] = target: T1, olfactory receptor OR4S2; test: Luciferase reporter gene assay: response of olfactory receptor to sulfide compound; type: cell-based; conditions: for response of olfactory receptor OR4S2 (fold increase) in screen of 428 olfactory receptors / concentration dependence of the response of OR4S2: HEK293 cells expressing OR4S2; for response of olfactory receptor OR4S2 (fold increase) in screen of 428 olfactory receptors: 100 μM sulfide compound, FIG. 1; for concentration dependence of the response of OR4S2: different concentrations, FIG. 2
From the text: A human olfactory receptor was cloned by using the PCR method with human genomic DNA (G1521: Promega Corporation) as a template on the basis of sequence information registered in GenBank. Each gene amplified through the PCR method was incorporated into a pENTR vector (Invitrogen) in accordance with the manual, and recombined, by utilizing the NotI and AscI sites present in the pENTR vector, with a pME18S vector at the NotI and AscI sites produced in the downstream of the Flag-Rho tag sequence of the pME18S vector.
An RTP1S gene (SEQ ID NO: 3) encoding RTP1S (SEQ ID NO: 4) was incorporated into the pME18S vector at the EcoRI and XhoI sites thereof.
HEK293 cells expressing any one of 428 human olfactory receptors were produced. A reaction solution with a composition shown in Table 2 was prepared and left to stand in a clean bench for 15 minutes, and then added to each well of a 96-well plate (BD Biosciences). Subsequently, 90 μL of HEK293 cells (3×10^5 cells/cm^2) was seeded in each well, and cultured in an incubator retained at 37° C. and 5% CO2 for 24 hours. As a control, cells with conditions for no expression of an olfactory receptor (Mock) were prepared and used in an experiment.
An olfactory receptor expressed on HEK293 cells increases the intracellular cAMP level through conjugation with the intracellular Gαs followed by resulting activation of adenylate cyclase. For smell response measurement in this study, luciferase reporter gene assay was used in which increase of the intracellular cAMP level is monitored as an emission value derived from a firefly luciferase gene (fluc2P-CRE-hygro). Transgenesis was simultaneously performed by using a product with a sea pansy luciferase gene fused to the downstream of the CMV promoter (hRluc-CMV), and the resultant was used as an internal standard to correct errors of transgenesis efficiency and the number of cells.
The medium was removed from the culture prepared in the above (3), and 75 μL of a solution containing a sulfide compound prepared with DMEM (NACALAI TESQUE, INC.) was added. The sulfide compound was 100 μM of dimethyl disulfide (DMDS) or dimethyl trisulfide (DMTS). The cells were cultured in a CO2 incubator for 3 hours to allow the luciferase gene to be sufficiently expressed in the cells. Measurement of the activity of luciferase was performed by using a Dual-Glo™ luciferase assay system (Promega Corporation) in accordance with an operation manual of the product. For each stimulus condition, the value fLuc/hRluc was calculated by dividing the emission value derived from firefly luciferase by the emission value derived from sea pansy luciferase. The value fLuc/hRluc derived from firefly luciferase and induced by a stimulus of a sulfide compound was divided by the value fLuc/hRluc for cells without a stimulus of a sulfide compound to calculate a fold increase, and the fold increase was used as an indicator of intensity of response.

Row | SMILES | response (Fold increase) of OR4S2 to DMTS in the presence of test substance (olfactory receptor OR4S2 [1]) | response (Response %) of OR4S2 to DMDS in the presence of test substance (olfactory receptor OR4S2 [1]) | odor intensity of DMTS in sensory test [2] | odor intensity of DMDS in sensory test [2] | response of olfactory receptor OR4S2 (fold increase) in screen of 428 olfactory receptors (olfactory receptor OR4S2 [3]) | concentration dependence of the response of OR4S2 (olfactory receptor OR4S2 [3]) | further results
1 | CC/C=C\CCC=O [cis-4-Heptenal, (Z)-Hept-4-enal] | suppressed the response of OR4S2 to DMTS | suppressed the response of OR4S2 to DMDS in a concentration-dependent manner | suppressed the odor intensity | suppressed the odor intensity | – | – | –
2 | CSSC [DMDS, Dimethyl disulfide] | – | – | – | – | exhibits a specific response | in a concentration-dependent manner | –
3 | CS [methylmercaptan, Methylmercaptan] | – | – | – | – | – | – | response of OR4S2 (olfactory receptor OR4S2 [3]; 3 mM, FIG. 4): did not respond
4 | CSC [dimethyl sulfide (DMS), Dimethylsulfide] | – | – | – | – | – | – | response of OR4S2 (olfactory receptor OR4S2 [3]; concentration of 1 mM and 3 mM, FIG. 3): responded
5 | CC(C)C12CCC(C)(CC1)O2 [1,4-cineol, 1,4-Cineole] | suppressed the response of OR4S2 to DMTS | suppressed the response of OR4S2 to DMDS in a concentration-dependent manner | suppressed the odor intensity | suppressed the odor intensity | – | – | –
6 | CSSSC [DMTS, Dimethyl trisulfide] | – | – | – | – | exhibits a specific response | in a concentration-dependent manner | –
